Literature values as cited in patent publication US20110287113A1, “TREATMENT OF PSORIASIS” (Insense Limited, priority 2009, published 2011).

Experiments:
[1] = under normal conditions
[2] = at 25° C.
[3] = under normal conditions; remark: listed apart in the source

N[C@@H](CSN=O)C(=O)O [S-nitrosocysteine]
time to total (100%) decomposition [1]: within minutes

O=NO [nitrite]
pKa [2]: 3.4

N[C@@H](CCC(=O)N[C@@H](CSN=O)C(=O)NCC(=O)O)C(=O)O [S-nitrosoglutathione]
time to total (100%) decomposition [1]: hours/days

[N]=O [NO, nitric oxide]
maximum solubility in water [3]: approximately 1.7 mM
